Biological target: Platelet-activating factor receptor (Oryctolagus cuniculus)
Assay: In vitro antagonist activity against platelet activating factor (PAF) receptor, using washed rabbit platelets

SMILES	IC50 [nM]
Cc1nc2cnccc2n1-c1ccc(C2=Nc3c(-c4cccnc4)nn(C)c3N(C)C(=O)C2)cc1 [1,8-Dimethyl-5-[4-(2-methyl-imidazo[4,5-c]pyridin-1-yl)-phenyl]-3-pyridin-3-yl-6,8-dihydro-1H-pyrazolo[3,4-b][1,4]diazepin-7-one]	2.4
Cc1cc2c(cc1C)-n1c(C)nnc1CC(c1ccc(-n3c(C)nc4cnccc43)cc1)=N2 [1,8,9-Trimethyl-5-[4-(2-methyl-imidazo[4,5-c]pyridin-1-yl)-phenyl]-4H-2,3,6,10b-tetraaza-benzo[e]azulene]	2.4
Cc1nc2cnccc2n1-c1ccc(C2=Nc3c(-c4ccncc4)nn(C)c3N(C)C(=O)C2)cc1 [1,8-Dimethyl-5-[4-(2-methyl-imidazo[4,5-c]pyridin-1-yl)-phenyl]-3-pyridin-4-yl-6,8-dihydro-1H-pyrazolo[3,4-b][1,4]diazepin-7-one]	5.2
Cc1nc2cnccc2n1-c1ccc(C2=Nc3c(-c4ccccn4)nn(C)c3N(C)C(=O)C2)cc1 [1,8-Dimethyl-5-[4-(2-methyl-imidazo[4,5-c]pyridin-1-yl)-phenyl]-3-pyridin-2-yl-6,8-dihydro-1H-pyrazolo[3,4-b][1,4]diazepin-7-one]	14
Cc1nn(C)c2c1NC(=O)CC(c1ccc(-n3c(C)nc4cnccc43)cc1)=N2 [1,3-Dimethyl-7-[4-(2-methyl-imidazo[4,5-c]pyridin-1-yl)-phenyl]-4,6-dihydro-1H-pyrazolo[3,4-b][1,4]diazepin-5-one]	1
Cc1nc2cnccc2n1-c1ccc(C2=Nc3c(COCC(C)C)nn(C)c3N(C)C(=O)C2)cc1 [3-Isobutoxymethyl-1,8-dimethyl-5-[4-(2-methyl-imidazo[4,5-c]pyridin-1-yl)-phenyl]-6,8-dihydro-1H-pyrazolo[3,4-b][1,4]diazepin-7-one]	0.8
Cc1nc2cnccc2n1-c1ccc(C2=Nc3c(-c4ccccc4)nn(C)c3NC(=O)C2)cc1 [1-Methyl-5-[4-(2-methyl-imidazo[4,5-c]pyridin-1-yl)-phenyl]-3-phenyl-6,8-dihydro-1H-pyrazolo[3,4-b][1,4]diazepin-7-one]	0.6
Cc1nc2cnccc2n1-c1ccc(C2=Nc3c(-c4ccccc4)nn(C)c3N(C)C(=O)C2)cc1 [1,8-Dimethyl-5-[4-(2-methyl-imidazo[4,5-c]pyridin-1-yl)-phenyl]-3-phenyl-6,8-dihydro-1H-pyrazolo[3,4-b][1,4]diazepin-7-one]	0.5
Cc1nc2cnccc2n1-c1ccc(C2=Nc3c(c(-c4ccccc4)nn3C)NC(=O)C2)cc1 [1-Methyl-7-[4-(2-methyl-imidazo[4,5-c]pyridin-1-yl)-phenyl]-3-phenyl-4,6-dihydro-1H-pyrazolo[3,4-b][1,4]diazepin-5-one]	2.7
Cc1nc2cnccc2n1-c1ccc(C2=Nc3c(-c4cccs4)nn(C)c3N(C)C(=O)C2)cc1 [1,8-Dimethyl-5-[4-(2-methyl-imidazo[4,5-c]pyridin-1-yl)-phenyl]-3-thiophen-2-yl-6,8-dihydro-1H-pyrazolo[3,4-b][1,4]diazepin-7-one]	1.5
Cc1nn(C)c2c1N=C(c1ccc(-n3c(C)nc4cnccc43)cc1)CC(=O)N2 [1,3-Dimethyl-5-[4-(2-methyl-imidazo[4,5-c]pyridin-1-yl)-phenyl]-6,8-dihydro-1H-pyrazolo[3,4-b][1,4]diazepin-7-one]	26
Cc1nn(C)c2c1N=C(c1ccc(-n3c(C)nc4cnccc43)cc1)CC(=O)N2C [1,3,8-Trimethyl-5-[4-(2-methyl-imidazo[4,5-c]pyridin-1-yl)-phenyl]-6,8-dihydro-1H-pyrazolo[3,4-b][1,4]diazepin-7-one]	17

More lines, now with the values ahead:

IC50 [nM]	SMILES
0.4	Cc1nc2cnccc2n1-c1ccc(C2=Nc3c(C4CCCCC4)nn4c3N(CCCC4)C(=O)C2)cc1 [3-Cyclohexyl-6-[4-(2-methyl-imidazo[4,5-c]pyridin-1-yl)-phenyl]-1,2,5,9-tetraaza-tricyclo[7.4.1.0*4,14*]tetradeca-2,4(14),5-trien-8-one]
0.7	Cc1nc2cnccc2n1-c1ccc(C2=Nc3c(C4CCCCC4)nn(C)c3N(C)C(=O)C2)cc1 [3-Cyclohexyl-1,8-dimethyl-5-[4-(2-methyl-imidazo[4,5-c]pyridin-1-yl)-phenyl]-6,8-dihydro-1H-pyrazolo[3,4-b][1,4]diazepin-7-one]
11	Cc1cc2c(cc1C)-n1nnnc1CC(c1ccc(-n3c(C)nc4cnccc43)cc1)=N2 [8,9-Dimethyl-5-[4-(2-methyl-imidazo[4,5-c]pyridin-1-yl)-phenyl]-4H-1,2,3,6,10b-pentaaza-benzo[e]azulene]
14	Cc1nc2cnccc2n1-c1ccc(C2=Nc3c(CO)nn(C)c3N(C)C(=O)C2)cc1 [3-Hydroxymethyl-1,8-dimethyl-5-[4-(2-methyl-imidazo[4,5-c]pyridin-1-yl)-phenyl]-6,8-dihydro-1H-pyrazolo[3,4-b][1,4]diazepin-7-one]
3.5	Cc1nc2cnccc2n1-c1ccc(C2=Nc3c(C(C)C)nn(C)c3N(C)C(=O)C2)cc1 [3-Isopropyl-1,8-dimethyl-5-[4-(2-methyl-imidazo[4,5-c]pyridin-1-yl)-phenyl]-6,8-dihydro-1H-pyrazolo[3,4-b][1,4]diazepin-7-one]
0.3	Cc1cn2c(n1)CC(c1ccc(-n3c(C)nc4cnccc43)cc1)=Nc1cc(Cl)c(Cl)cc1-2 [8,9-Dichloro-2-methyl-5-[4-(2-methyl-imidazo[4,5-c]pyridin-1-yl)-phenyl]-4H-3,6,10b-triaza-benzo[e]azulene]
21	Cc1cc(C)c2c(n1)N=C(c1ccc(-n3c(C)nc4cnccc43)cc1)CC(=O)N2 [7,9-Dimethyl-4-[4-(2-methyl-imidazo[4,5-c]pyridin-1-yl)-phenyl]-1,3-dihydro-pyrido[3,4-b][1,4]diazepin-2-one]
1.3	Cc1cc2c(cc1C)-n1ccnc1CC(c1ccc(-n3c(C)nc4cnccc43)cc1)=N2 [8,9-Dimethyl-5-[4-(2-methyl-imidazo[4,5-c]pyridin-1-yl)-phenyl]-4H-3,6,10b-triaza-benzo[e]azulene]
1.7	Cc1nc2cnccc2n1-c1ccc(C2=Nc3cc(Cl)c(Cl)cc3-n3ccnc3C2)cc1 [8,9-Dichloro-5-[4-(2-methyl-imidazo[4,5-c]pyridin-1-yl)-phenyl]-4H-3,6,10b-triaza-benzo[e]azulene]
55	Cc1cc2c(cc1C)-n1c(n[nH]c1=O)CC(c1ccc(-n3c(C)nc4cnccc43)cc1)=N2 [8,9-Dimethyl-5-[4-(2-methyl-imidazo[4,5-c]pyridin-1-yl)-phenyl]-2,4-dihydro-2,3,6,10b-tetraaza-benzo[e]azulen-1-one]
1.2	Cc1cnc2n1-c1cc(Cl)c(Cl)cc1N=C(c1ccc(-n3c(C)nc4cnccc43)cc1)C2 [8,9-Dichloro-1-methyl-5-[4-(2-methyl-imidazo[4,5-c]pyridin-1-yl)-phenyl]-4H-3,6,10b-triaza-benzo[e]azulene]
2.3	Cc1cc2c(cc1C)-n1cnnc1CC(c1ccc(-n3c(C)nc4cnccc43)cc1)=N2 [8,9-Dimethyl-5-[4-(2-methyl-imidazo[4,5-c]pyridin-1-yl)-phenyl]-4H-2,3,6,10b-tetraaza-benzo[e]azulene]

Source: BindingDB's records for doi:10.1021/jm00018a012 (Pfizer, 1995)
